A word on the Ki: it is a measure of affinity in units of concentration, obtained from inhibition or displacement.

The target in the experiment is T1, histamine 3 receptor (H3R) (Homo sapiens, UniProt Q9Y5N1).
T1 construct: expressed in transfected cells; host or cells: CHO cells (HR3-CHO)
T1 sequence (Q9Y5N1 whole entry): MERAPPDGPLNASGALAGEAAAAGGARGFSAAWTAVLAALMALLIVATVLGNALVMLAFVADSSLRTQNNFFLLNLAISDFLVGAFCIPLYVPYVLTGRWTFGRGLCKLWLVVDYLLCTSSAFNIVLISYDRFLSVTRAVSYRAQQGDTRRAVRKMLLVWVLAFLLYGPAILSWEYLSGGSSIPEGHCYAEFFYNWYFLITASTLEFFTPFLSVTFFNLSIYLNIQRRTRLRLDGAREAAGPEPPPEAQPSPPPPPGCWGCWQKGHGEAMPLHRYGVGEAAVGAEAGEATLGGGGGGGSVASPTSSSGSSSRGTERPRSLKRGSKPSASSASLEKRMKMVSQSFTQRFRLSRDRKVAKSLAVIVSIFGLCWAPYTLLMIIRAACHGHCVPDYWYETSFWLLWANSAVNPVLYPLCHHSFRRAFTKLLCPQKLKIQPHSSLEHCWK
Nature of the experiment: Binding assay with 3H-(R)α-methylhistamine (competition binding, HR3-CHO membranes). As to conditions: membrane of the human HR3-CHO cell line, 3H(R)α-Methylhistamine 1 nM; Ki calculated from IC50 by Cheng-Prusoff. How it is done: Binding Assay with ^3H-(R)α-methylhistamine
Saturation binding experiments were performed using HR3-CHO membranes prepared as described in Takahashi, K, Tokita, S., Kotani, H. (2003) J. Pharmacol. Exp. Therapeutics 307, 213-218.
An appropriate amount of membrane (60 to 80 μg protein/well) was incubated with increasing concentrations of ^3H(R)α-Methylhistamine di-hydrochloride (0.10 to 10 nM). Non specific binding was determined using a 200 fold excess of cold (R)α-Methylhistamine dihydrobromide (500 nM final concentration). The incubation was carried out at room temperature (in deep-well plates shaking for three hours). The final volume in each well was 250 μl. The incubation was followed by rapid filtration on GF/B filters (pre-soaked with 100 μl of 0.5% PEI in Tris 50 mM shaking at 200 rpm for two hours). The filtration was made using a cell-harvester and the filter plates were then washed five times with ice cold washing buffer containing 0.5 M NaCl. After harvesting, the plates were dried at 55° C. for 60 min, then we added scintillation fluid (Microscint 40, 40 microl in each well) and the amount of radioactivity on the filter was determined in Packard top-counter after shaking the plates for two hours at 200 rpm at room temperature.
Binding Buffer: 50 mM Tris-HCl pH 7.4 and 5 mM MgCl2x6H2O pH 7.4. Washing Buffer: 50 mM Tris-HCl pH 7.4 and 5 mM MgCl2x6H2O and 0.5 M NaCl pH 7.4.
Indirect measurement of affinity of H3R inverse agonists: twelve increasing concentrations (ranging from 10 μM to 0.3 nM) of the selected compounds were always tested in competition binding experiments using membrane of the human HR3-CHO cell line. An appropriate amount of protein, e.g. approximately 500 cpm binding of RAMH at Kd, were incubated for 1 hour at room temperature in 250 μl final volume in 96-well plates in presence of ^3H(R)α-Methylhistamine (1 nM final concentration=Kd). […]
All compounds were tested at a single concentration in duplicates. […] Ki's were calculated from IC50 based on Cheng-Prusoff equation (Cheng, Y, Prusoff, W H (1973) Biochem Pharmacol 22, 3099-3108).
In the case of `Cc1ccc(NC2CCC(C(=O)N3CCN(C(C)C)CC3)CC2)cc1` (stereo not drawn) [Example 1, (4-Isopropyl-piperazin-1-yl)-(4-p-tolylamino-cyclohexyl)-methanone], the inhibitory constant (Ki) is 52.8 nM. With `CC(C)N1CCN(C(=O)[C@H]2CC[C@H](NC(=O)c3ccc(Cl)cc3Cl)CC2)CC1` [Example 13, 2,4-dichloro-N-[trans-4-(4-isopropyl-piperazine-1-carbonyl)-cyclohexyl]-benzamide], the Ki was 88.1 nM. Consider `CC(C)N1CCN(C(=O)[C@H]2CC[C@H](NC(=O)N(C)c3cccc(F)c3)CC2)CC1` [Example 32, 1-(3-fluoro-phenyl)-3-[trans-4-(4-isopropyl-piperazine-1-carbonyl)-cyclohexyl]-1-methyl-urea], for which the inhibition constant Ki is 38.4 nM.
